{"source": "patent US20220383986A1", "about": "“Complex System for Contextual Spectrum Mask Generation Based on Quantitative Imaging” (The Board of Trustees of the University of Illinois, priority 2021, published 2022)", "key": {"CHO cells [1]": {"test_system": "CHO cells", "test": "time-lapse SLIM recording of CHO cells with and without staurosporine", "assay_type": "cell-based, Chinese hamster", "settings": "1 μM staurosporine in medium, measured for 10 hours, 37° C. and 5% CO2", "method": "CHO cells were plated on a glass bottom 6-well plate for optimal confluency. In addition to NucBlue/NucGreen staining, 1 μM of staurosporine (apoptotic inducing reagent) solution was added to the culture medium. This potent reagent permeates cell membrane and disrupts protein kinase, cAMP, and lead to apoptosis in 4-6 hours. The cells were then measured by SLIM and epi-fluorescence microscopy. The cells were maintained in regular incubation condition (37° C. and 5% concentration of CO2) throughout the experiment. In addition, it is verified that the cells were not affected by necrosis and lytic cell death.\nPICS on CHO cells and Evaluate the effect of lytic cell death: Before performing experiments on CHO cells, a preliminary study was conducted, as follows. Live cell cultures were prepared and split into the two groups. 1 μM of staurosporine was added into the medium of the experimental group, whereas the others were kept intact as control. Both control and experimental cells were measured with SLIM for 10 hours under regular incubation condition (37° C. and 5% concentration of CO2)."}, "CHO cells [2]": {"test_system": "CHO cells", "settings": "1 μM staurosporine added to culture medium; general description of the reagent; cited from earlier work"}}, "data": [{"smiles": "CN[C@@H]1C[C@H]2O[C@@](C)([C@@H]1OC)n1c3ccccc3c3c4c(c5c6ccccc6n2c5c31)C(=O)NC4", "note": "[staurosporine]", "values": [{"measurement": "cell characteristics in SLIM (QPI) images versus untreated control", "setting": "CHO cells [1]", "result": "cell volume decreased, and membrane ruptured or became detached"}, {"measurement": "time to apoptosis", "setting": "CHO cells [2]", "result": "4 to 6", "unit": "h"}]}]}
